Measured values: patent publication US8404650B2, “Methods of treating cancer with doxazolidine and prodrugs thereof” (priority 2005, dated 2013)
Read-outs that look alike come from different tables or passages of the source.

Legend:
MCF-7/Adr cells = assay: Drug uptake by MCF-7/Adr cells, flow cytometry of drug fluorescence; assay type: cell-based; conditions: for Drug uptake relative to Doxorubicin: MCF-7/Adr, 500 nM (equivalents), up to 3 h
Method: Drug uptake was measured by flow cytometery. Cells were dissociated with trypsin/EDTA, counted, and suspended in growth media to a concentration of 1×10^5 cells/mL. This cell suspension was dispensed in 2.5 mL aliquots into 6-well tissue culture plates. Plates were then incubated for 24 h at 37° C. in a humidified atmosphere of 5% CO2 and 95% air. The growth media was replaced with 2 mL of fresh growth media prior to addition of the drug. Doxaz, DoxF, and Doxorubicin HCl were dissolved in DMSO each at a concentration of 50 μM. The concentration was then corrected by measuring the solution absorbance at 480 nm (ε=11,500 M^−1 cm^−1). Drug solution (20 μL) was added to an individual well and was incubated for 5 min, 15 min, 30 min, 1 h, 2 h or 3 h at 37° C. in a humidified atmosphere of 5% CO2 and 95% air. All drug treatments were performed so all treatment times would end simultaneously. After treatment, culture media was removed, cells washed once with 0.5 mL HBSS, washed once with 0.5 mL trypsin/EDTA, and 0.5 mL trypsin/EDTA was added and cells were incubated for 5 min. After all cells were trypsinized, cells were aspirated with 1.5 mL cold D-PBS (Dulbecco's phosphate buffered saline, no calcium or magnesium) and this solution was added to 3 mL of cold D-PBS (4.5 mL total D-PBS) in a conical vial. Cells were centrifuged at 200 g for 5 min, and D-PBS was decanted off. Cells were washed once more in 5 mL cold D-PBS, centrifuged at 200 g for 5 min and D-PBS was decanted off. […] Cells were analyzed with excitation at 488 nm (15 mW Ar ion laser), with emission monitored between 570 nm and 600 nm. Instrument settings were optimized for the cell line and held constant for all experiments; for the anthracycline fluorescence analysis, 10,000 cells were analyzed for each sample. The data are presented as the mean fluorescence for each condition.
Uptake of pentyl PABC-Doxaz and Dox by multidrug resistant MCF-7/Adr breast cancer cells and SK-HEP-1 liver cancer cells in the presence of fetal bovine serum was determined by flow cytometry using drug fluorescence as a measure of drug in cells.

MCF-7/Adr = assay: Growth inhibition of multidrug resistant MCF-7/Adr breast cancer cells (crystal violet); assay type: cell-based; conditions: for IC50: Homo sapiens, NCI/ADR-RES
Method: (§1) In vitro Activity. […] This cell suspension was dispensed in 200 μL aliquots (1000 cells/well) into the inside wells of 96-well tissue culture plates. Outside wells contained 200 μL of media. […] The medium was replaced with 90 μL of growth medium prior to addition of the drug. Doxaz was dissolved in DMSO at concentrations ranging from 50 μM to 1 mM. […] Serial dilutions (1:3 and 1:10) were made in sterile DMSO to yield seven solutions of decreasing drug concentration at 100× the respective working concentrations. […] Additionally, two lanes were treated with 10 μL of growth medium containing 10% sterile DMSO and one lane was treated with 90 μL of 1.5 M Tris HCl. […]
Cell growth inhibition experiments initially focused on MCF-7, MCF-7/Adr, SK-HEP-1, and Hep G2 cancer cells as well as rat cardiomyocytes as a measure of cardiotoxicity and Vero cells (green monkey kidney cells) as an additional measure of normal cell toxicity.
Activity of plasmin-activated prodrugs.
(§2) A more thorough characterization of the growth inhibition of a variety of cancer cells as well as rat cardiomyocytes by Formula IV (aFK-PABC-Doxaz) was evaluated in comparison with inhibition of growth by Doxaz, Dox and aFK-PABC-Dox. Cells were treated with drug for 3 h and colony growth was measured at 3 to 5 days when cells reached about 80% confluence. […] The breast cancer cell lines represent the multi-drug resistant (MDR) phenotype with MCF-7/Adr cells and a cell line that is transfected with the gene for urokinase plasminogen activator (uPA), the primary enzyme responsible for cleavage of plasminogen to plasmin. Rat cardiomyocytes served as a model for comparison of drug cardiotoxicity.

Hep G2 = assay: Growth inhibition of Hep G2 liver cancer cells; assay type: cell-based, human; conditions: for IC50: Homo sapiens, HepG2
Description: Cell growth inhibition experiments initially focused on MCF-7, MCF-7/Adr, SK-HEP-1, and Hep G2 cancer cells as well as rat cardiomyocytes as a measure of cardiotoxicity and Vero cells (green monkey kidney cells) as an additional measure of normal cell toxicity. […]

DU-145 = assay: Growth inhibition of DU-145 prostate cancer cells; assay type: cell-based; conditions: for IC50: Homo sapiens
Method: as §1
(§3) SHP-77 small cell lung cancer cells were also of interest because they express modest amounts of both enzymes. Inhibition of the growth of cardiomyocytes was used as a measure of cardiotoxicity, and inhibition of the growth of Vero cells, green monkey kidney cells, was again used as another measure of toxicity to normal cells.
as §2, with “Cells were treated with drug for 3 h and colony growth was measured at 3 to 5 days when cells reached about 80% confluence.” left out

cancer cells = assay: Cancer cell growth inhibition, statements over several or unnamed cell lines; assay type: cell-based
Method: In vitro Activity. […] This cell suspension was dispensed in 200 μL aliquots (1000 cells/well) into the inside wells of 96-well tissue culture plates. Outside wells contained 200 μL of media. […] The medium was replaced with 90 μL of growth medium prior to addition of the drug. Doxaz was dissolved in DMSO at concentrations ranging from 50 μM to 1 mM. […] Serial dilutions (1:3 and 1:10) were made in sterile DMSO to yield seven solutions of decreasing drug concentration at 100× the respective working concentrations. […] Additionally, two lanes were treated with 10 μL of growth medium containing 10% sterile DMSO and one lane was treated with 90 μL of 1.5 M Tris HCl. The cells were incubated at 37° C. for 3 h, at which time the drug solutions were replaced with 200 μL of fresh growth medium.
as §2

SHP-77 = assay: Growth inhibition of SHP-77 small cell lung cancer cells; assay type: cell-based; conditions: 24 h drug treatment, crystal violet
Description: as §3

[1] = read-out: IC50 value for cell growth inhibition, MCF-7/Adr
[2] = 3 h, read-out: Growth inhibition IC50, MCF-7/Adr, 3 h
[3] = 3 h drug treatment, crystal violet, read-out: Growth inhibition IC50, Hep G2, 3 h (converted)
[4] = 3 h, read-out: IC50 MCF-7/Adr + plasmin
[5] = DU-145, read-out: IC50 DU-145, top line of the cell
[6] = 24 h drug treatment, crystal violet

With `COc1cccc2c1C(=O)c1c(O)c3c(c(O)c1C2=O)C[C@@](O)(C(=O)CO)C[C@@H]3OC1CC2C(OCN2CN2COC3C(C)OC(O[C@H]4C[C@](O)(C(=O)CO)Cc5c(O)c6c(c(O)c54)C(=O)c4c(OC)cccc4C6=O)CC32)C(C)O1` (some centres unmarked) [DoxF, Doxoform, reference compound] the “Drug uptake relative to Doxorubicin” value (MCF-7/Adr cells) was “significantly more”, the IC50 (MCF-7/Adr; 3 h, read-out: IC50 MCF-7/Adr) was 0.001 µM and the IC50 (MCF-7/Adr; [1]) was roughly 0.002 µM. The “IC50 lower than doxorubicin, Hep-G2” value (Hep G2) was “more than 25 fold” and the IC50 (DU-145; DU-145, 3 h, read-out: IC50 DU-145) was 0.003 µM.
With `COc1cccc2c1C(=O)c1c(O)c3c(c(O)c1C2=O)C[C@@](O)(C(=O)CO)C[C@@H]3O[C@H]1C[C@@H]2NCO[C@@H]2[C@H](C)O1` [Doxaz, Doxazolidine] the “Drug uptake relative to Doxorubicin” value (MCF-7/Adr cells) was “significantly more”, the IC50 (MCF-7/Adr; [2]) was 0.00316 µM and the IC50 (MCF-7/Adr; read-out: IC50 MCF-7/Adr) was 0.003 ± 0.0002 µM. The IC50 (MCF-7/Adr; [1]) was roughly 0.002 µM, the IC50 (Hep G2; [3]) was 0.01 µM and the “More toxic than Doxorubicin to multidrug-resistant cancer cells” value (cancer cells; variety of multidrug-resistant cancer cells) was 500-10,000 fold. It also gave an IC50 (DU-145; DU-145, read-out: IC50 DU-145) of 0.004 ± 0.0006 µM.
`COc1cccc2c1C(=O)c1c(O)c3c(c(O)c1C2=O)C[C@@](O)(C(=O)CO)C[C@@H]3O[C@H]1C[C@H](N)[C@H](O)[C@H](C)O1` [Doxorubicin, reference compound] gave an IC50 (MCF-7/Adr; [2]) of 6.31 µM, an IC50 (MCF-7/Adr; [4]) of 20 µM and an IC50 (MCF-7/Adr; 24 h, read-out: Growth inhibition IC50, MCF-7/Adr, 24 h) of 2.51 µM. It also gave an IC50 (MCF-7/Adr; read-out: IC50 MCF-7/Adr) of 10 µM, an IC50 (Hep G2; [3]) of 0.2 µM and an IC50 (Hep G2; 24 h drug treatment, crystal violet, read-out: Growth inhibition IC50, Hep G2, 24 h (converted)) of 0.0316 µM. The “Effect of added plasmin on activity” value (cancer cells; 0.01 unit/mL of plasmin) was “no effect”, the IC50 (DU-145; DU-145, 24 h, read-out: Cell growth inhibition IC50, DU-145) was 0.0316 µM and the IC50 (DU-145; DU-145, read-out: IC50 DU-145) was 0.24 µM. For the same compound, the IC50 (DU-145; [5]) was 0.3 µM and the IC50 (SHP-77; Homo sapiens, SHP77) was 0.126 µM.
With `COc1cccc2c1C(=O)c1c(O)c3c(c(O)c1C2=O)C[C@@](O)(C(=O)CO)C[C@@H]3O[C@H]1C[C@H]2[C@H](OCN2C(=O)OCc2ccc(NC(=O)[C@H](CCCCN)NC(=O)[C@H](Cc3ccccc3)NC(=O)[C@@H](C)N)cc2)[C@H](C)O1` [Formula IV, D-Ala-L-Phe-L-Lys-p-aminobenzyloxycarbonyl-Doxaz] the IC50 (MCF-7/Adr; [4]) was 0.01 µM, the IC50 (MCF-7/Adr; read-out: IC50 MCF-7/Adr) was 0.1 µM and the “Increase of activity on addition of plasminogen” value (cancer cells; 0.01 unit/mL plasminogen, on average) was 0.3 log. The “Growth inhibition better than aFK-PABA-Dox” value (cancer cells; most of the cancer cells, 3 h treatment) was no less than 0.5 log, the IC50 (cancer cells; read-out: Cancer cell growth inhibition IC50 in the presence of plasmin) was 0.005 µM and the IC50 (DU-145; DU-145, read-out: IC50 DU-145 + plasmin) was 0.006 µM. The IC50 (DU-145; [5]) was 0.16 µM.
For `CCCCCOC(=O)Nc1ccc(COC(=O)N2COC3C(C)OC(OC4CC(O)(C(=O)CO)Cc5c(O)c6c(c(O)c54)C(=O)c4c(OC)cccc4C6=O)CC32)cc1` (centres unmarked) [Pentyl PABC-Doxaz, Pentyl 4-(N-doxazolidinylcarbonyloxymethyl)phenylcarbamate], the “Uptake relative to Dox, MCF-7/Adr” value (MCF-7/Adr cells; in the presence of fetal bovine serum) was “taken up much better”, the “Growth inhibition IC50, MCF-7/Adr, 24 h” value (MCF-7/Adr; [6]) was −6.5 ± 0.06 log of the molar concentration and the “Growth inhibition IC50, Hep G2, 24 h” value (Hep G2; [6]) was −7.3 ± 0.2 log of the molar concentration. The “Cell growth inhibition IC50, DU-145” value (DU-145; [6]) was −6.7 ± 0.07 log of molar concentrations and the “Cell growth inhibition IC50, SHP-77” value (SHP-77) was −7.3 ± 0.1 log of molar concentrations.
